The source of these data is patent publication US8916576B2 (Surface Logix, Inc., priority 2005, dated 2014).

Test [1] addresses ROCK2 (Homo sapiens (Human), UniProt O75116). As to the kind of experiment: Inhibition of ROCK2 (Rho kinase inhibition assay; ROCK-II Assay Kit / IMAP). The format is biochemical. The following applies: for IC50: Table 1, repeat determinations; for Specificity of kinase inhibition (FIG. 10): FIG. 10 legend, ROCK2 versus ROCK1 and PKC. An excerpt: (§1) Methods of determining kinase inhibition are well known in the art. For example, kinase activity of an enzyme and the inhibitory capacity of a test compound can be determined by measuring enzyme specific phosphorylation of a substrate. Commercial assays and kits can be employed. For example, kinase inhibition can be determined using an IMAP® assay (Molecular Devices). This assay method involves the use of a fluorescently-tagged peptide substrate. Phosphorylation of the tagged peptide by a kinase of interest promotes binding of the peptide to a trivalent metal-based nanoparticle via the specific, high affinity interaction between the phospho-group and the trivalent metal. Proximity to the nanoparticle results in increased fluorescence polarization. Inhibition of the kinase by a kinase inhibitor prevents phosphorylation of the substrate and thereby limits binding of the fluorescently-tagged substrate to the nanoparticle. Such an assay can be compatible with a microwell assay format, allowing simultaneous determination of IC50 of multiple compounds.
ROCK-II inhibitory activity can be measured using the ROCK-II Assay Kit (Molecular Devices, inc.; Sunnyvale, Calif.).
(§2) Inhibition of ROCK2 by various compounds was determined.
(§3) Inhibitory activity for Rho kinase was determined for examples of compounds of the present invention. Inhibition of Rho kinase can be assayed as described. For each of these compounds their inhibitory activity for both ROCK 1 and ROCK 2 was determined. […] The IC50 values (in μM) for each of these compounds show a selectivity for inhibiting ROCK2.

In test [2] the target is ROCK 1 (Homo sapiens (Human), UniProt Q13464). As to the kind of experiment: Inhibition of ROCK1 (Rho kinase inhibition assay). The format is biochemical. The following applies: Tables 2.1-2.4.
Sequence of ROCK 1 (Q13464 whole entry, species assumed): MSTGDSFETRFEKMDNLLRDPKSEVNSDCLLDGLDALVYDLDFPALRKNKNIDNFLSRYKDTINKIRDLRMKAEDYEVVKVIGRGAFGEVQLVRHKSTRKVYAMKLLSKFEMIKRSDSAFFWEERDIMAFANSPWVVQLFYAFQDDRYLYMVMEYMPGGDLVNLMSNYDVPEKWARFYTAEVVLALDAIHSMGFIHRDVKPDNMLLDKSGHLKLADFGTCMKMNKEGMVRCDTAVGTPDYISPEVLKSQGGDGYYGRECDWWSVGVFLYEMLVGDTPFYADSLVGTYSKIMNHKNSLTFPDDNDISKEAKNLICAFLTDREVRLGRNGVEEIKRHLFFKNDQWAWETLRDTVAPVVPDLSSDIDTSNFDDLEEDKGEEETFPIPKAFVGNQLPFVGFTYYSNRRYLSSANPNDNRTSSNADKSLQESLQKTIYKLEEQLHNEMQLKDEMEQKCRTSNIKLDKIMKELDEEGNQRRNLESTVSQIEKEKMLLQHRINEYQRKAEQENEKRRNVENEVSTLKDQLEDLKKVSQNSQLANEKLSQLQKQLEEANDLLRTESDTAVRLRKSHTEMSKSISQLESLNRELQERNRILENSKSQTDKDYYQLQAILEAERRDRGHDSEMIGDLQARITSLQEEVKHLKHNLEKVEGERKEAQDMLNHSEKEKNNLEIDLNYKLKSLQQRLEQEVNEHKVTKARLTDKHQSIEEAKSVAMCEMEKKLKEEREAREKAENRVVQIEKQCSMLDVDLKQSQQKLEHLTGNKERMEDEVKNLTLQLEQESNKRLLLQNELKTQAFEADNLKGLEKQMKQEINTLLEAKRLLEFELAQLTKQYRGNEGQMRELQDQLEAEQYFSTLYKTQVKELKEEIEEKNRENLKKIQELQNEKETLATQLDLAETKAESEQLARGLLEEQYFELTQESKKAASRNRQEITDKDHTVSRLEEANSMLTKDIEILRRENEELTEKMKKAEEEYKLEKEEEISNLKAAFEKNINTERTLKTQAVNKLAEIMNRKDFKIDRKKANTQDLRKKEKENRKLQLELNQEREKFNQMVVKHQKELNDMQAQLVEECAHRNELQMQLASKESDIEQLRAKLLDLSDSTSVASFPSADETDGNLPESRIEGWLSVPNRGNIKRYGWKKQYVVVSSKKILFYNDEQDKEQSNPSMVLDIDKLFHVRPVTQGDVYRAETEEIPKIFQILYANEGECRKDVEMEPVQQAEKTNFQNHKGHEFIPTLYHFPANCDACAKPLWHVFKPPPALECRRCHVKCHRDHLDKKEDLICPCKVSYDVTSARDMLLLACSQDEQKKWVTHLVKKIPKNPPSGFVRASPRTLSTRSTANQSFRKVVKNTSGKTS
Description: as §1, §2, §3

SMILES strings stand for the structures. Several values for one entry are separate records, joined by “and”; a condition that tells them apart may be missing. Equal values may be shown once.

Sequence of ROCK2 (O75116 whole entry, species assumed): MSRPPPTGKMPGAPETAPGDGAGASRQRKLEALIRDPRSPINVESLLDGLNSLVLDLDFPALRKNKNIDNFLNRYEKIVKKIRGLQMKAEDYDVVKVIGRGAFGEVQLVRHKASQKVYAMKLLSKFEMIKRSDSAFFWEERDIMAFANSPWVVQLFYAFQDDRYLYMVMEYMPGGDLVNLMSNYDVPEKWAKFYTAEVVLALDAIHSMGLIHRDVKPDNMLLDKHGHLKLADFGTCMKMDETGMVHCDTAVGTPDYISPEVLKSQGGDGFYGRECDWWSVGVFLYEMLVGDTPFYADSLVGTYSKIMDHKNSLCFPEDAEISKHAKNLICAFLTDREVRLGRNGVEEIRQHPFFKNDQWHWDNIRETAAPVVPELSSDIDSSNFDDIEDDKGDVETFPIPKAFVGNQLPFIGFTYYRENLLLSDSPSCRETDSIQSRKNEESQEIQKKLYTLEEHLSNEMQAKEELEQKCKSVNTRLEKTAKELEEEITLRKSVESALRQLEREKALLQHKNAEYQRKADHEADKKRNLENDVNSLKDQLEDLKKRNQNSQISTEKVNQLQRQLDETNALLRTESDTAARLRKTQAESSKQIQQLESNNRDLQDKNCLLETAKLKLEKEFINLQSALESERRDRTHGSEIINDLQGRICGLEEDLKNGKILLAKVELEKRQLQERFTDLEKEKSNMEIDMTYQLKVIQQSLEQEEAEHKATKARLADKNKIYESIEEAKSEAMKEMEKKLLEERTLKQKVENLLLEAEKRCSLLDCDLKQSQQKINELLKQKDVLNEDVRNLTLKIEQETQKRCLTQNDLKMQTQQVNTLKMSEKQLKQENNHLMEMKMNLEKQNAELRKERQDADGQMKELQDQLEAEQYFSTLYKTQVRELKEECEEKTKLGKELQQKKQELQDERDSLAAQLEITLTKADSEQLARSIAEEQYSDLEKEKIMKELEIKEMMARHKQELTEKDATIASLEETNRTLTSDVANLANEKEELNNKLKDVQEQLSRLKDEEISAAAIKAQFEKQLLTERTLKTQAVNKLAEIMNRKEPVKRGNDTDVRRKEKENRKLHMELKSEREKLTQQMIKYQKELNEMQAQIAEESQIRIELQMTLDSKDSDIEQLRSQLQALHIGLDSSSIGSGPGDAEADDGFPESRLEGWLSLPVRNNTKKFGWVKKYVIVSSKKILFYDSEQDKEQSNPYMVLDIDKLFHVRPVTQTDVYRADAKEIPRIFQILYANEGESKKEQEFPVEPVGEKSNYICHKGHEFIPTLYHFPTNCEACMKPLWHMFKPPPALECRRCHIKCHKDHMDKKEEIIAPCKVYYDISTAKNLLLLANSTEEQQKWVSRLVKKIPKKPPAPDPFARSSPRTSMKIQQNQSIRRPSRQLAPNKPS

In test [1], `COCCN(C)CC(=O)Nc1ccccc1-c1nc(Nc2ccc3[nH]ncc3c2)c2ccccc2n1` [Example 213] registered an IC50 of more than 100 µM. Compound `CCCC(=O)Nc1cccc(-c2nc(Nc3ccc4[nH]ncc4c3)c3ccc(OCCOC)cc3n2)c1` [Example 263] registered an IC50 in test [2] of more than 3000 nM. `COc1ccccc1-c1nc(Nc2ccc3[nH]ncc3c2)c2ccccc2n1` [Example 239] had an IC50 in test [1] of more than 100 µM. On the same count and under the same terms, then `c1ccc(-c2nc(Nc3ccc4[nH]ncc4c3)c3cc(OCCN4CCOCC4)ccc3n2)cc1` [Example 265], with 6.5 µM and 7.3 µM; and `CN(C)CCC(=O)Nc1ccccc1-c1nc(Nc2ccc3[nH]ncc3c2)c2ccccc2n1` [Example 224], with 5.3 µM; and `O=C(Nc1ccccc1-c1nc(Nc2ccc3[nH]ncc3c2)c2ccccc2n1)C1CCCNC1` (centres unmarked) [Example 218], with more than 100 µM.

On to `Oc1ccccc1-c1nc(Nc2ccc3[nH]ncc3c2)c2ccccc2n1` [Example 233], for which, in test [1], the IC50 was 2 µM and 2.5 µM.

As to `CCCC(=O)Nc1ccccc1-c1nc(Nc2ccc3[nH]ncc3c2)c2ccccc2n1` [Example 212], in test [1], the IC50 is more than 100 µM.

For the compound `O=C(Nc1ccccc1-c1nc(Nc2ccc3[nH]ncc3c2)c2ccccc2n1)c1ccncc1` [Example 222], the IC50 in test [1] was more than 100 µM.

In test [2], `COc1cc2nc(-c3cccc(NC(=O)CN4CCOCC4)c3)nc(Nc3ccc4[nH]ncc4c3)c2cc1OCCN1CCCC1` [Example 167, N-(3-(4-(1H-Indazol-5-ylamino)-7-methoxy-6-(2-(pyrrolidin-1-yl)ethoxy)quinazolin-2-yl)phenyl)-2-morpholinoacetamide] showed an IC50 of more than 3000 nM.

As for `COCCNC(=O)COc1ccccc1-c1nc(Nc2ccc3[nH]ncc3c2)c2ccccc2n1` [Example 234], in test [1], the IC50 was more than 100 µM. Still for that read-out and setting: with `CC(C)(C)C(=O)Nc1ccccc1-c1nc(Nc2ccc3[nH]ncc3c2)c2ccccc2n1` [Example 214] the figure was more than 100 µM. Compound `Oc1ccc2nc(-c3ccccc3)nc(Nc3ccc4[nH]ncc4c3)c2c1` [Example 267] returned an IC50 in test [1] of 3.9 µM. The same measure, in the same setting: with `CCCC(=O)Nc1cccc(-c2nc(Nc3ccc4[nH]ncc4c3)c3cc(OCCN4CCN(C)CC4)c(OC)cc3n2)c1` [Example 209, N-(3-(4-(1H-indazol-5-ylamino)-7-methoxy-6-(2-(4-methylpiperazin-1-yl)ethoxy)quinazolin-2-yl)phenyl)butyramide] the figure was 0.016 µM and 0.014 µM; with `CCCC(=O)Nc1cccc(-c2nc(Nc3ccc4[nH]ncc4c3)c3cc(OCC4CC4)ccc3n2)c1` [Example 258], 0.255 µM and 0.182 µM; with `CCCC(=O)Nc1cccc(-c2nc(Nc3ccc4c(cnn4C)c3)c3cc(OCCN(C)C)ccc3n2)c1` [Example 243], more than 0.3 µM. Still for that read-out and setting: then `O=C(COc1ccccc1-c1nc(Nc2ccc3[nH]ncc3c2)c2ccccc2n1)NCc1ccccc1` [Example 237], with more than 100 µM. In test [2], `CCCC(=O)Nc1cccc(-c2nc(Nc3ccc4[nH]ncc4c3)c3cc(OCCN(C)C)ccc3n2)c1` [Example 141, N-(3-(4-(1H-indazol-5-ylamino)-6-(2-(dimethylamino)ethoxy)quinazolin-2-yl)phenyl)butyramide] displayed an IC50 of more than 1000 nM. In test [2], `CC(=O)Oc1cccc(-c2nc(Nc3ccc4[nH]ncc4c3)c3ccccc3n2)c1` [Example 272] came in with an IC50 of more than 10000 nM. For `COCC(=O)Nc1ccccc1-c1nc(Nc2ccc3[nH]ncc3c2)c2ccccc2n1` [Example 225], the IC50 in test [1] was found to be 1.7 µM.

For `O=C(COc1cccc(-c2nc(Nc3ccc4[nH]ncc4c3)c3ccccc3n2)c1)Nc1cccnc1` [Example 55, 2-(3-(4-(1H-indazol-5-ylamino)quinazolin-2-yl)phenoxy)-N-(pyridin-3-yl)acetamide], the IC50 in test [2] was more than 10000 nM. As to `O=C(Nc1ccccc1-c1nc(Nc2ccc3[nH]ncc3c2)c2ccccc2n1)c1ccoc1` [Example 216], the IC50 in test [1] is more than 100 µM. The same measure, in the same setting: then `O=C(CN1CCCC1)Nc1ccccc1-c1nc(Nc2ccc3[nH]ncc3c2)c2ccccc2n1` [Example 217], with 36 µM. Compound `CCCC(=O)Nc1cccc(-c2nc(Nc3ccc4[nH]ncc4c3)c3cc(OCCCN4CCOCC4)c(OC)cc3n2)c1` [Example 160, N-(3-(4-(1H-indazol-5-ylamino)-7-methoxy-6-(3-morpholinopropoxy)quinazolin-2-yl)phenyl)butyramide] registered an IC50 in test [2] of more than 3000 nM.

Regarding `CC(C)NC(=O)COc1cccc(-c2nc(Nc3ccc4[nH]ncc4c3)c3ccccc3n2)c1` [Example 82, 2-(3-(4-(1H-indazol-5-ylamino)quinazolin-2-yl)phenoxy)-N-isopropylacetamide], the “Specificity of kinase inhibition (FIG. 10)” value in test [1] is “specific inhibition of ROCK2”.

For the compound `CNCC(=O)Nc1ccccc1-c1nc(Nc2ccc3[nH]ncc3c2)c2ccccc2n1` [Example 215], the IC50 in test [1] is 17 µM and > 10 µM.

For `CC(C)NC(=O)CNc1cccc(-c2nc(Nc3ccc4[nH]ncc4c3)c3ccccc3n2)c1` [Example 230], the IC50 in test [1] was more than 3 µM. On the same count and under the same terms, then `CC(C)NC(=O)COc1ccccc1-c1nc(Nc2ccc3[nH]ncc3c2)c2ccccc2n1` [Example 232], with more than 100 µM. In the case of `CCCC(=O)Nc1cccc(-c2nc(Nc3ccc4[nH]ncc4c3)c3cc(OC)c(OCCOC)cc3n2)c1` [Example 262], the IC50 in test [1] was 0.024 µM. Still for that read-out and setting: with `O=C(COc1ccccc1-c1nc(N(CC(=O)NCC2CC2)c2ccc3[nH]ncc3c2)c2ccccc2n1)NCC1CC1` [Example 235] the figure was more than 100 µM; with `CCCC(=O)Oc1cccc(-c2nc(Nc3ccc4[nH]ncc4c3)c3ccccc3n2)c1` [Example 211], 0.129 µM; with `CCCC(=O)Nc1cccc(-c2nc(Nc3ccc4[nH]ncc4c3)c3cc(OCCN4CCN(C)CC4)ccc3n2)c1` [Example 203, N-(3-(4-(1H-indazol-5-ylamino)-6-(2-(4-methylpiperazin-1-yl)ethoxy)-quinazolin-2-yl)phenyl)butyramide], 0.012 µM and 0.0095 µM. The same measure, in the same setting: with `CCCCC(=O)Nc1cccc(-c2nc(Nc3ccc4[nH]ncc4c3)c3ccccc3n2)c1` [Example 259] the figure was 0.029 µM.

Regarding `O=C(CN1CCOCC1)Nc1ccccc1-c1nc(Nc2ccc3[nH]ncc3c2)c2ccccc2n1` [Example 231], the IC50 in test [1] was more than 3 µM. Turning to `CN(C)C(=O)Nc1ccccc1-c1nc(Nc2ccc3[nH]ncc3c2)c2ccccc2n1` [Example 221], in test [1], half-maximal inhibition (IC50) was put at 49 µM.

For `COC(=O)Nc1ccccc1-c1nc(Nc2ccc3[nH]ncc3c2)c2ccccc2n1` [Example 219], in test [1], the IC50 stood at 2.9 µM. As for `O=C(Nc1ccccc1-c1nc(Nc2ccc3[nH]ncc3c2)c2ccccc2n1)c1ccccn1` [Example 223], the IC50 in test [1] is more than 100 µM. Regarding `COCCNC(=O)COc1cccc(-c2nc(Nc3ccc4[nH]ncc4c3)c3ccccc3n2)c1` [Example 54, 2-(3-(4-(1H-indazol-5-ylamino)quinazolin-2-yl)phenoxy)-N-(2-methoxyethyl)acetamide], the IC50 in test [2] was more than 10000 nM. `CCCC(=O)Nc1cccc(-c2nc(Nc3ccc4[nH]ncc4c3)c3cc(OCCN4CCC(O)C4)ccc3n2)c1` (centres unmarked) [Example 205, N-(3-(4-(1H-indazol-5-ylamino)-6-(2-(3-hydroxypyrrolidin-1-yl)ethoxy)-quinazolin-2-yl)phenyl)butyramide]: the IC50 in test [1] was 0.011 µM and 0.012 µM and 0.008 µM and 0.013 µM. `CCCC(=O)Nc1cccc(-c2nc(Nc3ccc4[nH]ncc4c3)c3cc(OCCN4CC[C@H](N(C)C)C4)c(OC)cc3n2)c1` [Example 210, N-(3-(4-(1H-indazol-5-ylamino)-6-(2-((S)-3-(dimethylamino)pyrrolidin-1-yl)ethoxy)-7-methoxyquinazolin-2-yl)phenyl)butyramide]: the IC50 in test [1] was 0.018 µM and 0.01 µM. For the compound `CCCC(=O)Nc1cccc(-c2nc(Nc3ccc4c(cnn4C(=O)OC(C)(C)C)c3)c3cc(OCCOC)c(OC)cc3n2)c1` [Example 261], the IC50 in test [1] is more than 0.3 µM. Consider `CCCC(=O)Nc1cccc(-c2nc(Nc3ccc4[nH]ncc4c3)c3cc(OCCN4CCCC4=O)c(OC)cc3n2)c1` [Example 206, N-(3-(4-(1H-indazol-5-ylamino)-7-methoxy-6-(2-(2-oxopyrrolidin-1-yl)ethoxy)quinazolin-2-yl)phenyl)butyramide], for which, in test [1], the IC50 is 0.048 µM and 0.064 µM. Still for that read-out and setting: then `COCCNC(=O)COc1ccccc1-c1nc(N(CC(=O)NCCOC)c2ccc3[nH]ncc3c2)c2ccccc2n1` [Example 238], with more than 100 µM. As to `C[C@@H](N)[C@H]1CC[C@H](C(=O)Nc2ccncc2)CC1` [Example Y27632, reference compound], the “Specificity of kinase inhibition (FIG. 10)” value in test [1] is “inhibits both ROCK1 and ROCK2, as well as PKC”.

In test [1], `O=C(Nc1ccccc1-c1nc(Nc2ccc3[nH]ncc3c2)c2ccccc2n1)N1CCOCC1` [Example 220] had an IC50 of more than 100 µM.

Regarding `O=C(COc1ccccc1-c1nc(N(CC(=O)NCc2ccccc2)c2ccc3[nH]ncc3c2)c2ccccc2n1)NCc1ccccc1` [Example 236], the IC50 in test [1] is more than 100 µM. Still for that read-out and setting: with `CC(=O)Oc1ccccc1-c1nc(Nc2ccc3[nH]ncc3c2)c2ccccc2n1` [Example 240] the figure was 23 µM.

One may read the IC50 as the concentration needed to halve the response being measured. A low value points to inhibition by little substance.
